Reference: patent EP4592274A1, “RADIOLABELED TYROSINE DERIVATIVE AND APPLICATION THEREOF” (OSAKA UNIVERSITY, priority 2022, dated 2024)

Assays:
[1] = target: T1, HEK293-hLAT1 cells (Homo sapiens, UniProt Q01650); test: Cellular uptake test (using HEK293); assay type: cell-based
T1 construct: expressed in transfected cells; host or cells: HEK293
Experimental: • Cells to be used: HEK293-Mock, HEK293-hLAT1, HEK293-hLAT2 (HEK293: Human Embryonic Kidney cells 293) • Culture medium to be used: E-MEM (containing 10% FBS, 1% P/S, 1% NEAA)
Two days before a test day, a cell suspension was prepared in such a manner that the concentration of predetermined cells was 1 x 10^5 cells/mL. The cell suspension was seeded in a 24-well multiculture plate at a volume of 0.5 mL per well. On the day of the test, cultures were confirmed to be subconfluent (which refers to a state where 70-80% of the well is covered in density). […]
^211At-AAMT-OMe or ^211At-AAMT was added to the prepared cells at 10 µL/well. […] The cells were lysed by adding 0.1N NaOH to obtain a lysate, and the radioactivity of the lysate was measured using a γ counter. After the radioactivity measurement, the lysate was loaded into a 96-well plate at a volume of 10 µL per well, the protein amount was measured by the BCA method, and the number of cells was corrected based on the protein amount. Absorbance was measured by MultiScanFC (Thermo Fisher). The uptake level of ^211At-AAMT-OMe or ^211At-AAMT into the cells (number of radioactivity counts/protein amount) was calculated.

[2] = test system: human pancreatic cancer cell line, PANC1; test: Therapeutic test on mice subcutaneously transplanted with PANC1 (Test Example 3); assay type: in vivo
Text: Twenty-eight days after administration, the mice were euthanized and subjected to autopsy, and tumor masses were isolated after organs were examined for abnormalities.

[3] = test system: PANC1; test: Cellular uptake test (using PANC1); assay type: cell-based, human; details: compared to 211At-AAMT
Experimental: • Cells to be used: PANC1 • Culture medium to be used: D-MEM (containing 10% FBS, 1% P/S)
Two days before a test day, a cell suspension was prepared in such a manner that the concentration of predetermined cells was 1 x 10^5 cells/mL in the same manner as in Test Example 1. The cell suspension was seeded in a 24-well multiculture plate at a volume of 0.5 mL per well. On the day of the test, cultures were confirmed to be subconfluent (which refers to a state where 70-80% of the well is covered in density). The cells were washed twice with warmed PBS(-) Buffer (166-23555, FUJIFILM Wako Pure Chemical Corporation), the culture medium was replaced with HBSS(-) Buffer (085-09355, FUJIFILM Wako Pure Chemical Corporation), and the plate was left to stand in an incubator (MINIcell-35, WakenBtech Co., Ltd) until an RI addition test.
^211At-AAMT-OMe, ^211At-AAMT-OEt, ^211At-AAMT-OPr, or ^211At-AAMT was added to the prepared cells at 10 µL/well. BCH (LAT1 inhibitor, 20 mM) or unlabeled AMT (α-methyl tyrosine, […]) was previously (15 minutes before) added (10 µg/mL). The cells were cultured (CO2 5%, 37°C), and after 30 minutes, the liquid was removed by suction using an aspirator. The cells were washed twice with PBS(-). The cells were lysed by adding 0.1N NaOH to obtain a lysate, and the radioactivity of the lysate was measured using a γ counter. After the radioactivity measurement, the lysate was loaded into a 96-well plate at a volume of 10 µL per well, the protein amount was measured by the BCA method, and the number of cells was corrected based on the protein amount. Absorbance was measured by MultiScanFC (Thermo Fisher). The uptake level of ^211At-AAMT-OMe, ^211At-AAMT-OEt, ^211-At-AAMT-OPr, or ^211At-AAMT into the cells (number of radioactivity counts/protein amount) was calculated.

[4] = test system: human pancreatic cancer cell line, PANC1; test: Measurement of accumulated amounts of 211At-labeled compounds in tumors of PANC1 transplanted mice (Test Example 5); assay type: in vivo; details: 0.1 MBq per mouse via tail vein
Experimental: Radiation doses before and after the administration were measured, and a difference between them was defined as an injected dose (ID). Ten minutes and one hour after administration, the mice were anesthetized by isoflurane inhalation, the tumors were isolated by autopsy in chronological order, and their radiation doses and weights were measured using a gamma counter (2480 Wizard^2, PerkinElmer) and a semimicro scale (Shimadzu Corporation, readability 10 µg), respectively. For comparison between accumulated amounts, accumulated amounts per unit amount (% ID/g) were calculated.

[5] = test system: human pancreatic cancer cell line, PANC1; details: up to 21 days after administration, 1 MBq per mouse
Experimental: Tumor sizes and body weights were measured over time after the administration. The experiment was terminated 21 days after administration. It should be noted that in Fig. 21 and Fig. 22, "OMe" is ^211At-AAMT-OMe and "OEt" is ^211At-AAMT-OEt.

[6] = test system: CDDP-resistant A549 (A549 CDDP-r); details: 30 days after administration, 0.5 MBq per mouse, compared with 211At-AAMT
Experimental: (§1) Thirty days after administration, the mice were euthanized and tumor masses were isolated. After fat tissue and the like were trimmed off, the wet weights of the isolated tumor masses were measured to make a histogram.

[7] = test system: Gem-resistant PANC1 (PANC1 Gem-r); details: mouse, in vivo
Experimental: as §1

[8] = test system: human pancreatic cancer cell line, PANC1; test: Imaging of mice subcutaneously transplanted with PANC1 (Test Example 2); details: 2 hours after administration, 0.5 MBq per mouse via tail vein
Text: Immunodeficient mice (Balb/c-nu/nu, 5-week-old, male) were habituated for 1 week and then subcutaneously transplanted with a human pancreatic cancer cell line (PANC1, 1 × 10^7 cells/mouse). After the transplantation, the mice were observed over time until tumor reached a size large enough for imaging (about 1000 mm^3). […] Two hours after administration, the mice were anesthetized by isoflurane inhalation, and planar images were taken using a γ camera (E-cam, Siemens).

T1 sequence (Q01650 whole entry): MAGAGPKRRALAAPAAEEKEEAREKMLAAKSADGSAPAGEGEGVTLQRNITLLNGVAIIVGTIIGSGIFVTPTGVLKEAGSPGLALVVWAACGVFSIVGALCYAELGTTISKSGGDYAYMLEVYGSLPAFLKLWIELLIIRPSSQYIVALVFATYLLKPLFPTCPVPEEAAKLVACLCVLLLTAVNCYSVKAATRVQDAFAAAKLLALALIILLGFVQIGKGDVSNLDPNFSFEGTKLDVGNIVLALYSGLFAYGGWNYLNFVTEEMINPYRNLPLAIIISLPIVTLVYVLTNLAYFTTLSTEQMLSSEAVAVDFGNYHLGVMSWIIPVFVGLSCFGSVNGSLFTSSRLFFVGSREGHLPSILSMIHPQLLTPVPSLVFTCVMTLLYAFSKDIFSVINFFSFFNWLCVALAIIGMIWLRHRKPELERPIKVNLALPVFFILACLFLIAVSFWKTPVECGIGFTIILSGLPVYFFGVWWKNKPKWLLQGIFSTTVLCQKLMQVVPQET
T1 sequence (P08195 102-630 partner): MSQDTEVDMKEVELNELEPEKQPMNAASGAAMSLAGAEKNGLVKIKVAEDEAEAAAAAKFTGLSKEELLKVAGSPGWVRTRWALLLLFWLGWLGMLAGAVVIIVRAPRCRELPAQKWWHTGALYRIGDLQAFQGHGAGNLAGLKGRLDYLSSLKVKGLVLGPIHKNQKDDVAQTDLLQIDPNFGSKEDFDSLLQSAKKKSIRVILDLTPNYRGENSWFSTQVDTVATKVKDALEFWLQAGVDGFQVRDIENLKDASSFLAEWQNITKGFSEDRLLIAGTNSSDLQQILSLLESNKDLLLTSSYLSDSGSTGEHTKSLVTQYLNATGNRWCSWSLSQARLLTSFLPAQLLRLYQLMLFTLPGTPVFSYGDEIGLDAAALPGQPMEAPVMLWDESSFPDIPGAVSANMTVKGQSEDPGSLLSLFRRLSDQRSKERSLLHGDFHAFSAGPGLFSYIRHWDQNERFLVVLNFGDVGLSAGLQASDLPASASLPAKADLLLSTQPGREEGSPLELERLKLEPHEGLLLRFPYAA

COc1ccc(C[C@](C)(N)C(=O)O)cc1[211At] [^211At-AAMT-OMe, (S)-3-astato(^211At)-O-methyl-α-methyltyrosine]
uptake level into the cells (number of radioactivity counts/protein amount) ([1]; HEK293-hLAT1 cells (CTL), 30 minutes, comparable to 211At-AAMT): strongly taken up | uptake into the cells in the presence of inhibitor ([1]; HEK293-hLAT1 cells, in the presence of BCH and AMT): significantly inhibited | tumor size (wet weight of isolated tumor masses) ([2]; 28 days after administration, 1 MBq per mouse via tail vein, compared with the 211At-AAMT administration group): slightly smaller | mouse body weight ([2]; immediately after administration to 28th day, 1 MBq per mouse, not at a level regarded as a side effect): tends to slightly reduce | uptake speed ([3]; PANC1 cells): much superior | uptake level into the cells (number of radioactivity counts/protein amount) [3]: much superior | tumor accumulation ([4]; 10 minutes after administration): 2.59 %ID/g | tumor accumulation ([4]; 1 hour after administration): 3.78 %ID/g | apparent toxicity induced by administration [5]: not observed | body weight [5]: gently increased | anti-tumor effect (tumor weight) [6]: higher | anti-tumor effect (tumor weight) [7]: higher | tumor growth inhibiting effect (tumor size) [7]: higher | accumulation in the tumor (planar image, γ camera) [8]: accumulated in the tumor sites
